From patent US9096548B2, “Pyrazine amide compounds” (Boehringer Ingelheim International GmbH, priority 2013, dated 2015) come the findings set out here.

Each structure is given as a SMILES string. Some results are limits rather than exact numbers.

One assay deals with T1, ENaC (Epithelial Sodium Channel) (Mus musculus, UniProt Q61180+Q9WU38+Q9WU39).
T1 construct: Mouse kidney M−1 cells were cultivated in DMEM; endogenous in cells; host or cells: Mouse kidney M-1 cells, cultivated with dexamethasone on transwell filters
T1 sequence (Q61180 1-699): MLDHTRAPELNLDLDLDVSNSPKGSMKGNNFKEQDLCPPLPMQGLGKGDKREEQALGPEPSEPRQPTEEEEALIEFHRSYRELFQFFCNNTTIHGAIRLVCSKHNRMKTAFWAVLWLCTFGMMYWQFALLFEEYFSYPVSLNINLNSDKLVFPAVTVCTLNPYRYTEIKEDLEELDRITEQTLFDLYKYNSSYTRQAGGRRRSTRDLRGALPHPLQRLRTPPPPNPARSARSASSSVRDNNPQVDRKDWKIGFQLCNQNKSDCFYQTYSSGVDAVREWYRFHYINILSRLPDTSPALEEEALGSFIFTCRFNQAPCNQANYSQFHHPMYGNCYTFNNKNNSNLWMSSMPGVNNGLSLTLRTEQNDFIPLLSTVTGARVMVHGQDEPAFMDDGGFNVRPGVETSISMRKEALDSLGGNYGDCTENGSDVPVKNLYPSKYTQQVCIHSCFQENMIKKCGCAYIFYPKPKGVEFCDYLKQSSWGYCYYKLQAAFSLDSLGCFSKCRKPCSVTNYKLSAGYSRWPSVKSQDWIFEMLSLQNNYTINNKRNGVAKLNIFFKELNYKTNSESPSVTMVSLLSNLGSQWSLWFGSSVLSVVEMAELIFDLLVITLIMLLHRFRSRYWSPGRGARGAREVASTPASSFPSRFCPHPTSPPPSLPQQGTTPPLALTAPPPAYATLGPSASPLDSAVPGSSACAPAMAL
T1 sequence (Q9WU38 1-638): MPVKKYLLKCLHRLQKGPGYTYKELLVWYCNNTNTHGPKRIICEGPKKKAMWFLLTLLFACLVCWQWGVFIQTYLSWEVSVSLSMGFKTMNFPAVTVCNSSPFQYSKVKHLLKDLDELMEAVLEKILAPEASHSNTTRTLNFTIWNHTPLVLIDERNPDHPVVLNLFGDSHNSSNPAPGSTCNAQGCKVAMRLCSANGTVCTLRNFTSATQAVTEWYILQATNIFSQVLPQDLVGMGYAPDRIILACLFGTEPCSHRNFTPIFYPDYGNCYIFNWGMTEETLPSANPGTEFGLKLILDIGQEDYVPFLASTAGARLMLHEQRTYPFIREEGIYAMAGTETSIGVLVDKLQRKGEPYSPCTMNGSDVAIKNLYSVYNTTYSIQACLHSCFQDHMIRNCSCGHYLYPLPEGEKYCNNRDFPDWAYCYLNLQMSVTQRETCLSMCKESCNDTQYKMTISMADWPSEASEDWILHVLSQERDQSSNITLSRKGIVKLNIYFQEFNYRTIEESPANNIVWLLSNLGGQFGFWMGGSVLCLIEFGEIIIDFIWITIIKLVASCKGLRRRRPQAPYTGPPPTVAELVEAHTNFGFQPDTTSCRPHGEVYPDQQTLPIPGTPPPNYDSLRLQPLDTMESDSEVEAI
T1 sequence (Q9WU39 1-655): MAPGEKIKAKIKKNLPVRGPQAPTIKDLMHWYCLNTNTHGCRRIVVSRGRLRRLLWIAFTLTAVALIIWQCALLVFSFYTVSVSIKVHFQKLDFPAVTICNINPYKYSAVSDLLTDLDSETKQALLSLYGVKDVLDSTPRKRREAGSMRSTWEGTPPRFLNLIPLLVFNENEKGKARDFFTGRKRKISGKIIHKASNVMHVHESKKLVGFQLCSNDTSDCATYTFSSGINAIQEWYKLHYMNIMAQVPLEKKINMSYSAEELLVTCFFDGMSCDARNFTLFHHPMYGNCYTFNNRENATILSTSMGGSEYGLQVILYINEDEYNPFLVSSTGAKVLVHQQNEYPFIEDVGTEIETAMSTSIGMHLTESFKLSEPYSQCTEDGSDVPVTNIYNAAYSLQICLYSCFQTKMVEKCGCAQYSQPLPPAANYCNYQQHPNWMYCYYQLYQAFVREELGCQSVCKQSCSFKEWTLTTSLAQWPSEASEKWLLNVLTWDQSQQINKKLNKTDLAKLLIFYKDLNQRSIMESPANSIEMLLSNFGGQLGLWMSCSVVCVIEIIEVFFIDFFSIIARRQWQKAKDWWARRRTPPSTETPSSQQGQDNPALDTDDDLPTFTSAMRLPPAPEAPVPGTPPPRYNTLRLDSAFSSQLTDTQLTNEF
The assay can be described thus: Ussing Chamber assay (short circuit current, amiloride sensitive I_SC). It is filed as cell-based. As to conditions: Ussing chamber, mouse kidney M-1 cells, short circuit current, compound added to the apical solution; read-out: IC50. In short, it runs like this:
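Mouse kidney M-1 cells grown 10–12 days on filters with 5 μM dexamethasone, measured in Caco-2 transport buffer at 37° C under voltage clamp. Compound applied apically at 3 μM or 1-3-10 μM; 3 μM amiloride added at end. Short circuit current inhibition given as percent of amiloride effect or IC50.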
Usually IC50 stands for the concentration that inhibits the measured activity by half. Consider `CN(Cc1ccccn1)C(=O)COc1ccc(CCC[N+]2(CCCc3ccc(OCC(=O)N(C)Cc4ccccn4)cc3)CCC[C@H](NC(=O)c3nc(Cl)c(N)nc3N)C2)cc1` [Example 6.22], for which the IC50 stood at 0.018 µM. For the molecule `COc1ccc(CCC[N+]2(CCCc3ccc(OC)cc3)CC(NC(=O)c3nc(Cl)c(N)nc3N)[C@H](c3ccc(C)cc3)C2)cc1` (stereo partly shown) [Example 1.2], the IC50 came to 0.2 µM. The same measure, in the same setting: then `Nc1nc(N)c(C(=O)N[C@H]2CCC[N+](CCCc3ccc(OCC(=O)NC(CO)CO)cc3)(CCCc3ccc(OCC(=O)NC(CO)CO)cc3)C2)nc1Cl` [Example 6.20], with 0.046 µM; and `N#CCNC(=O)COc1ccc(CCC[N+]2(CCCc3ccc(OCC(=O)NCC#N)cc3)CCC[C@H](NC(=O)c3nc(Cl)c(N)nc3N)C2)cc1` [Example 6.31], with 0.018 µM. On the same count and under the same terms, then `COc1ccc(CCC[N+]2(CCc3ccccc3)CCCC(NC(=O)c3nc(Cl)c(N)nc3N)C2)cc1` (stereo not shown) [Example 3.6], with 0.06 µM; and `Nc1nc(N)c(C(=O)N[C@H]2CCC[N+](CCCc3ccc(OCC(=O)N4CCOCC4)cc3)(CCCc3ccc(OCC(=O)N4CCOCC4)cc3)C2)nc1Cl` [Example 6.58], with 0.072 µM; and `Nc1nc(N)c(C(=O)N[C@H]2CCC[N+](CCCc3ccc(OCC(=O)NCCOCCO)cc3)(CCCc3ccc(OCC(=O)NCCOCCO)cc3)C2)nc1Cl` [Example 6.55], with 0.025 µM.

`Nc1nc(N)c(C(=O)N[C@H]2CCC[N+](CCCc3ccc(OCC(=O)NCCCO)cc3)(CCCc3ccc(OCC(=O)NCCCO)cc3)C2)nc1Cl` [Example 6.18]: the IC50 amounted to 0.013 µM. The same measure, in the same setting: then `COc1ccc(CCC[N+]2(CCCc3ccc(C(=O)NCCOCCOCCO)cc3)CCCC(NC(=O)c3nc(Cl)c(N)nc3N)C2)cc1` (stereo not shown) [Example 5.5], with 0.07 µM; and `Nc1nc(N)c(C(=O)N[C@H]2CCC[N+](CCCc3ccc(OCC(=O)NCC(O)CO)cc3)(CCCc3ccc(OCC(=O)NCC(O)CO)cc3)C2)nc1Cl` (stereo partly shown) [Example 6.19], with 0.03 µM. On the same count and under the same terms, then `COc1ccc(CCC[N+]2(CCCc3ccc(C(N)=O)cc3)CCCC(NC(=O)c3nc(Cl)c(N)nc3N)C2)cc1` (stereo not shown) [Example 5.6], with 0.025 µM; and `COc1ccc(CCC[N@+]2(C)CCC[C@H](NC(=O)c3nc(Cl)c(N)nc3N)C2)cc1` [Example 3.1], with 0.75 µM. Consider `COc1ccc(CCC[N+]2(CCCc3ccc(OC)cc3)CCC(NC(=O)c3nc(Cl)c(N)nc3N)C2)cc1` (stereo not shown) [Example 1.1], for which the IC50 came to 0.03 µM.

With `CN1CCC(NC(=O)COc2ccc(CCC[N+]3(CCCc4ccc(OCC(=O)NC5CCN(C)C5=O)cc4)CCC[C@H](NC(=O)c4nc(Cl)c(N)nc4N)C3)cc2)C1=O` (stereo partly shown) [Example 6.46], the 50% inhibitory concentration (IC50) is 0.083 µM.

As to `Nc1nc(N)c(C(=O)N[C@H]2CCC[N+](CCOc3ccccc3)(CCOc3ccccc3)C2)nc1Cl` [Example 10.7, 3-[(3,5-Diamino-6-chloro-pyrazine-2-carbonyl)-amino]-1,1-bis-[2-phenoxy-ethyl]-piperidinium chloride], the IC50 was found to be 0.158 µM. Same read-out and setting: then `CN(CCC#N)C(=O)COc1ccc(CCC[N+]2(CCCc3ccc(OCC(=O)N(C)CCC#N)cc3)CCC[C@H](NC(=O)c3nc(Cl)c(N)nc3N)C2)cc1` [Example 6.29], with 0.105 µM. Regarding `Cn1cncc1CNC(=O)COc1ccc(CCC[N+]2(CCCc3ccc(OCC(=O)NCc4cncn4C)cc3)CCC[C@H](NC(=O)c3nc(Cl)c(N)nc3N)C2)cc1` [Example 6.41], the IC50 was 0.018 µM. Take `COc1ccc(CCC[N+]2(CCCc3ccc(OC)cc3)CCCCC(NC(=O)c3nc(Cl)c(N)nc3N)C2)cc1` (stereo not shown) [Example 1.3]: the IC50 is 0.044 µM. On the same count and under the same terms, then `C[N+](C)(C)CCNC(=O)COc1ccc(CCC[N+]2(CCCc3ccc(OCC(=O)NCC[N+](C)(C)C)cc3)CCCC(NC(=O)c3nc(Cl)c(N)nc3N)C2)cc1` (stereo not shown) [Example 6.6], with 0.068 µM. Consider `COCCCNC(=O)COc1ccc(CCC[N+]2(CCCc3ccc(OCC(=O)NCCCOC)cc3)CCC[C@H](NC(=O)c3nc(Cl)c(N)nc3N)C2)cc1` [Example 6.60], for which the 50% inhibitory concentration (IC50) stood at 0.007 µM.

`NC(=O)COc1ccc(CCC[N+]2(CCCc3ccc(OCC(N)=O)cc3)CCCC(NC(=O)c3nc(Cl)c(N)nc3N)C2)cc1` (stereo not shown) [Example 6.4]: the half-maximal inhibitory concentration (IC50) turned out to be 0.072 µM. On to `COc1ccc(CCC[N+](C)(CCCc2ccc(OC)cc2)CC(C)(C)NC(=O)c2nc(Cl)c(N)nc2N)cc1` [Example 2.3], for which the half-maximal inhibitory concentration (IC50) came out at 0.51 µM.

The same assay, now with this note: Ussing chamber, mouse kidney M-1 cells, short circuit current; unit inferred; read-out: IC50.
In the case of `COc1ccc(CCC[N+]2(CCCc3ccc(C(=O)NCCC(=O)O)cc3)CCCC(NC(=O)c3nc(Cl)c(N)nc3N)C2)cc1` (stereo not shown) [Example 5.10, 1-{3-[4-(Carboxyethyl-carbamoyl)-phenyl]-propyl}-3-[(3,5-diamino-6-chloro-pyrazine-2-carbonyl)-amino]-1-[3-(4-methoxy-phenyl)-propyl]-piperidinium chloride], the IC50 is 0.15 µM.

`Nc1nc(N)c(C(=O)N[C@H]2CCC[N+](CCCc3ccc(OCCOCCOCCOCCO)cc3)(CCCc3ccc(OCCOCCOCCOCCO)cc3)C2)nc1Cl` [Example 9.4, 3-[(3,5-Diamino-6-chloro-pyrazine-2-carbonyl)-amino]-1,1-bis-{3-[4-(2-{2-[2-(2-hydroxy-ethoxy)-ethoxy]-ethoxy}-ethoxy)-phenyl]-propyl}-piperidinium chloride]: the 50% inhibitory concentration (IC50) was found to be 0.067 µM. For the molecule `COc1ccc(CCC[N+](C)(CCCc2ccc(OC)cc2)CC(NC(=O)c2nc(Cl)c(N)nc2N)c2ccccc2)cc1` (stereo not shown) [Example 2, {2-[(3,5-Diamino-6-chloro-pyrazine-2-carbonyl)-amino]-2-phenyl-ethyl}-bis-[3-(4-methoxy-phenyl)-propyl]-methyl-ammonium chloride], the IC50 turned out to be 0.03 µM.

The assay is the same for the next values; noted with them: Ussing chamber, mouse kidney M-1 cells, short circuit current; value printed in the example text with μM; read-out: IC50.
With `Nc1nc(N)c(C(=O)NC2CCC[N+](CCCc3ccc(C(=O)NCCOCCOCCO)cc3)(CCCc3ccc(C(=O)NCCOCCOCCO)cc3)C2)nc1Cl` (stereo not shown) [Example 4.2, 3-[(3,5-Diamino-6-chloro-pyrazine-2-carbonyl)-amino]-1,1-bis-[3-(4-{2-[2-(2-hydroxyethoxy)-ethoxy)]-ethylcarbamoyl}-phenyl)-propyl]-piperidinium chloride], the half-maximal inhibitory concentration (IC50) worked out at 0.76 µM.

For `COc1ccc(CCC[N+]2(CC(=O)O)CCCC(NC(=O)c3nc(Cl)c(N)nc3N)C2)cc1` (stereo not shown) [Example 13, 1-Carboxymethyl-3-[(3,5-diamino-6-chloro-pyrazine-2-carbonyl)-amino]-1-[3-(4-methoxy-phenyl)propyl]-piperidinium chloride], the half-inhibitory concentration (IC50) was over 1 µM. For `COC(=O)COc1cccc(CCC[N+]2(CCCc3cccc(OCC(=O)OC)c3)CCC[C@H](NC(=O)c3nc(Cl)c(N)nc3N)C2)c1` [Example 10.10, (S)-3-[(3,5-Diamino-6-chloro-pyrazine-2-carbonyl)-amino]-1,1-bis-[3-(3-methoxycarbonylmethoxy-phenyl)-propyl]-piperidinium chloride], the half-maximal inhibitory concentration (IC50) is 0.025 µM.
